Results on four compounds are retold here after PMC11056991, “Promising Anticancer Prodrugs Based on Pt(IV) Complexes with Bis-organosilane Ligands in Axial Positions” (Journal of Medicinal Chemistry, 2024).

The subject of series [1] is HCT 116 human colon cancer cells. In words: MTT cell viability assay, HCT 116. The settings on record: MTT. It is filed as cell-based. For orientation: Tetrazolium dyes change colour on reduction, which living cells bring about.
Method: (§2) HIEC6 human healthy intestinal cells and HCT 116 and HT-29 human colon cancer cells were supplied by ATCC. Colon cancer cells were cultured in Dulbecco’s modified Eagle’s medium (DMEM) for HCT 116 and HT-29 supplemented with fetal bovine serum (10%). HIEC6 cells were cultured in Opti-MEM supplemented with fetal bovine serum (4%), HEPES (20 mM), glutamine (10 mM), and epidermal growth factor (10 ng/mL). Cells were maintained at 37 °C in a humidified atmosphere containing 5% CO2. Cells were seeded at 30% confluence in DMEM for HCT 116 and in Opti-MEM for HIEC6; after cell adhesion, HIEC6 cells were cultured in DMEM for 24h before being treated. All cells were treated with the indicated components at concentrations of 0.25–50 μM and incubated for 1–5 days as specified.
(§3) The MTT assay relies on a colorimetric reaction based on the capacity of living cells to reduce MTT to formazan and change the color to purple, which is easily measured by colorimetry. This assay estimates the cellular viability after the indicated treatments. Cells were treated with MTT (1:10 in culture medium) and incubated at 37 °C for 3 h for HCT 116 and HT-29 or 6 h for HIEC6. After removal of the medium, the formazan was resuspended in DMSO, transferred to p96 plates, and analyzed by a SpectraFLUOR (Tecan) at 542 nm. In all cases, viability was measured in duplicates of each point in three independent experiments.
Series [2] concerns HIEC6 human healthy intestinal cells. In words: MTT cell viability assay, HIEC6. As to conditions: MTT; for Reduction in viability of healthy cells (HIEC6): 5 μM. The format is cell-based.
Method: as §2, §3
Series [3] has as its system p53 protein levels in HCT 116 cells. Kind of series: Western blot of p53 levels. As to conditions: HCT 116, 48 h, increasing concentrations. It is filed as cell-based, human. How it is done: Confocal imaging of the DNA damage response was followed by immunofluorescence of histone gH2Ax foci at double-strand DNA breaks (DSB) (Figure 4A). […] However, none of the Pt(IV) prodrugs were able to increase p53 levels even at concentrations higher than those needed to reduce cell viability.
Cells were washed with iced PBS before extract preparation and scraped in whole-cell protein lysis buffer (62.5 mM Tris-HCl pH 6.8, 2% sodium dodecyl sulfate (SDS), 0.01% bromophenol blue sodium salt, and 10% glycerol). Whole-cell protein lysates were incubated 15 min at 95 °C and directly used as whole cell extract or frozen at −80 °C. Proteins from lysed cells or immunoprecipitates were denatured and loaded on sodium dodecyl sulfate polyacrylamide gels and then transferred to polyvinylidene difluoride membranes (Bio-Rad). After blocking with 5% (w/v) milk, the membrane was incubated with the corresponding primary antibodies, anti-p53 sc-126 (Santa Cruz Biotechnology) or anti-tubulin (Sigma-Aldrich), and secondary antibodies (Bio-Rad). The specific bands were analyzed using the ChemiDoc Imaging Systems (Bio-Rad).
(In general: Immunoblotting shows a protein as a band on a membrane.)

Series [4] has as its system HCT 116 cells. In words: Trypan blue exclusion test. The settings on record: HCT 116, 0.5 μM, 2 days. It is filed as cell-based, human. How it is done:
HCT 116 cells were harvested by trypsinization followed by centrifugation at 500g for 5 min. The cell pellet was resuspended in 1 mL of PBS. Equal volumes of trypan blue (Bio-Rad cat. no. 1450021) 0.4% and cell suspension were mixed and incubated for 1–3 min at room temperature, and cell counting was carried out using a TC20 Automated Cell Counter (Bio-Rad cat. no. 1450102). The percentage of viable cells was calculated by dividing the number of viable cells per milliliter by the number total of cells per milliliter) × 100. Representative images were acquired using a Zeis light microscope with a 20× objective.

Series [5] is described as follows: Stability in DMEM by 195Pt NMR. The settings on record: DMSO-d6/DMEM 1:4, 37 °C, 0, 24, 48, 120 h. It is filed as physicochemical. The source says:
We then decided to evaluate the stability of the two Pt(IV) complexes in the medium (DMEM) used to carry out the in vitro experiments, monitoring their kinetics by ^195Pt NMR at different times to evaluate the possible species formed over time. DMEM is supplemented with proteins and other molecules essential for cell growth (Experimental Section). Thus, similar to the reduction assays, we analyzed the Pt(II)/Pt(IV) region where the expected species appear. […] Both Pt(IV)/Pt(II) signals disappeared after 48 h, most likely again because of the binding of the complex to the proteins.
To each solution was then slowly and carefully added 300 μL of DMEM to avoid the precipitation of the complex, reaching a final concentration of 1:4 (DMSO-d6/DMEM). All these mixtures were performed using a thermoshaker. Each sample was monitored by ^195Pt NMR at 0, 24, 48, and 120 h.

A short description of series [6]: 195Pt NMR reduction kinetics with glutathione. The format is physicochemical. The settings on record: GSH 4:1 excess, DMSO/D2O (4:1), 37 °C, 2, 6, 24 h. The protocol:
(§1) AsA presents an intracellular concentration of 1 mM, whereas the GSH concentration is 2 mM.[38] This reactivity was monitored by ^195Pt NMR at different times. Thus, by analyzing the different regions where the signals of Pt(II)/Pt(IV) species appear, it is possible to identify and assign the different compounds formed during the reaction. In most cases, the regions where the Pt(II) and Pt(IV) signals appear are separated by more than 3000 ppm.[33]
The reactivity of both complexes toward the reducing agent GSH was also studied using the DMSO/D2O (4:1) mixture. […] In the Pt(II) region, two signals appeared after 24 h at −2728 and −3405 ppm (Figure 2G). The first value is consistent with the cis-PtN2SX fraction,[41],[42] meaning that this species, once reduced to its Pt(II) homologue, coordinates with GSH by displacing a chloride ligand. The second signal corresponds to another Pt(II) moiety with more than one ligand containing sulfur atoms. […]
Each solution was then slowly added to 100 μL of a solution of the corresponding reducing agent (AsA or GSH in an excess of 4:1 against each complex) in D2O at 37 °C. […] Each sample was monitored by ^195Pt NMR at 2, 6, and 24 h.

The nature of series [7]: 195Pt NMR reduction kinetics with ascorbic acid. The format is physicochemical. As to conditions: AsA 4:1 excess, DMSO/D2O (4:1), 37 °C, 2, 6, 24 h. How it is done:
as §1
We first studied the reduction of the complexes against AsA, monitoring the reaction in both the Pt(IV) and Pt(II) region at 2, 6, and 24 h. In both cases, we used a mixture of DMSO/D2O (4:1) to reach the solubilization of the complexes and the AsA. In the Pt(IV)-biSi-1 reduction experiment, during the first hour, only the signal at 1210 ppm appeared in the Pt(IV) region (Figure S13A), which corresponds to the original complex, and no signal was detected in the Pt(II) region.
Each solution was then slowly added to 100 μL of a solution of the corresponding reducing agent (AsA or GSH in an excess of 4:1 against each complex) in D2O at 37 °C. After that, 100 μL of DMSO-d6 was added carefully to each mixture, reaching a final concentration of […] (DMSO-d6/D2O). All of these mixtures were performed using a thermoshaker. Each sample was monitored by ^195Pt NMR at 2, 6, and 24 h.

Setting [8] is: 2 days, experiment with intermediates, Figure 3A.
Setting [9] is: 2 days, (final complexes, Figure 3B).

With “cis-Dichloro(diisopropylamine)-trans-dihydroxoplatinum(IV) [iproplatin, reference compound]”, the “Cell viability, HCT 116 5uM 2 days” value in series [1] (setting [8]) is 73.6 ± 5.4%. Also, in series [2] (setting [8]), the “Cell viability, HIEC6 5uM 2 days” value was 69.8 ± 6.3%.

As for `N.N.[Cl][Pt][Cl]` [cisplatin, Cisplatin, reference compound], the p53 levels entry in series [3] is given as “increased p53 levels (at all concentrations)”. Moreover, in series [1] (5 μM, 5 days chronic treatment), the “Cells survived, HCT 116” value was “more than 50%”. In addition, the “Reduction of viability by trypan blue staining” value in series [4] is 20%. For the same compound, the “Reduction in viability of healthy cells (HIEC6)” value in series [2] (2 days) was found to be 60%.

For `N.N.[Cl-].[Cl-].[OH-].[OH-].[Pt+4]` [oxoplatin, cis-Dichloro(diamine)-trans-dihydroxoplatinum(IV), reference compound], in series [1] (setting [8]), the “Cell viability, HCT 116 5uM 2 days” value is reported as 82.9 ± 6.0%. The “Cell viability, HIEC6 5uM 2 days” value in series [2] (setting [8]) is recorded as 65.3 ± 10.9%.

In general, IC50 refers to the midpoint of a concentration-inhibition curve. As for `CCO[Si](CCCNC(=O)[O][Pt]([NH2])([NH2])([Cl])([Cl])[O]C(=O)NCCC[Si](OCC)(OCC)OCC)(OCC)OCC` [Pt(IV)-biSi-1, cis-Dichloro(diamine)-trans-[3-(triethoxysilyl)propylcarbamate]platinum(IV)], in series [1] (0.5 uM, 2 days), the “Cell viability, HCT 116 0.5uM 2 days” value was found to be 70.1 ± 6.0%. Moreover, in series [1] (0.5 μM, 2 days), the “Reduction of viability (cytotoxicity) of HCT 116 tumor cells” value is on record as “very similar to those of cisplatin”. Moreover, the “Cell viability, HCT 116 0.5uM 5 days” value in series [1] (0.5 uM, 5 days) is 87.0 ± 5.0%. Moreover, in series [1] (5 μM, 2 days), the “Reduction in viability of cancer cells (HCT 116)” value was 20%. Further, the “Cell viability, HCT 116 5uM 2 days” value in series [1] (setting [9]) is reported as 78.8 ± 3.1%. The concentration for half-maximal inhibition (IC50) in series [1] (48 h, supplementary CSV, read-out: IC50 (uM) HCT 116) worked out at 8.9 ± 0.6 µM; in series [2] (48 h, supplementary CSV, read-out: IC50 (uM) HIEC6), 5.1 ± 0.7 µM. Besides, the “Reduction of viability by trypan blue staining” value in series [4] is recorded as 20%. The “Stability in DMEM (Pt(IV) signal in 195Pt NMR)” value in series [5] is recorded as “decreases with time up to 48 h, where a small fraction of the initial complex remains intact”. Also, the “Cell viability, HIEC6 0.5uM 2 days” value in series [2] (0.5 uM, 2 days) is reported as 99.5 ± 1.8%. Moreover, in series [2] (0.5 uM, 5 days), the “Cell viability, HIEC6 0.5uM 5 days” value came out at 105.3 ± 3.6%. Moreover, the “Reduction in viability of healthy cells (HIEC6)” value in series [2] (2 days) worked out at 60%. Further, in series [2] (setting [9]), the “Cell viability, HIEC6 5uM 2 days” value is reported as 40.0 ± 1.8%. Besides, in series [6], the “Reduction of the Pt(IV) complex by GSH (Pt(IV) signal in 195Pt NMR)” value is on record as “at 24 h, there is still a fraction of free complex without undergoing reduction”. Also, the “Reduction of the Pt(IV) complex by AsA (Pt(IV) signal in 195Pt NMR)” value in series [7] was “after 24 h, this signal underwent a marked decrease in intensity”.
